Assay results from US4338330A, “Benzimidazole derivatives, their use, and compositions containing these derivatives” (Continental Pharma, priority 1979, dated 1982).
Entries after “also recorded” stand apart in the source; their conditions may differ.

How the values were obtained:
platelet agglutination = assay: Inhibition of platelet agglutination in plasma (turbidimetric method, Thrombofax); format: cell-based; details: plasma rich in platelets, preincubated 4 minutes
Protocol: The measure of platelet agglutination inhibition was made according to the turbidimetric method of G. V. R. Born and M. J. Cross (J. Physiol., 168, 178, […]). The plasma rich in platelets was preincubated for 4 minutes before addition of the inducing agent, namely Thrombofax. The variations of turbidity were recorded for a period of 10 minutes with a "Chronolog" agglutinometer. The inhibition of the maximum amplitude of agglutination was measured.

β1 cardiac receptors [1] = target: T1, β1 cardiac receptors (Cavia porcellus, UniProt H0W3H1); assay: β-lytic activity: inhibition of inotrope response to isoproterenol of electrically stimulated left auricles (pA2); set-up: species or system guinea pig
T1 construct: chronotropic response to noradrenaline of guinea pig auricles; from tissue; host or cells: guinea pig auricles (chronotropic response); electrically stimulated guinea pig left auricles (inotropic response)
Protocol: (§1) The effect on β1 cardiac receptors is measured by inhibition of the chronotropic response to noradrenaline of guinea pig auricles and of the inotrope response to isoproterenol of guinea pig left auricles which were electrically stimulated. The cardioselectivity is appreciated by measuring the antagonist effect at the level of β2 receptors of the guinea pig trachea. To this end, a tracheal chain is contracted by a maximum concentration of histamine and inhibition of relaxation by isoproterenol is measured. The values calculated for cardioselectivity are obtained by considering the difference between pA2 values of the chronotrope response and the relaxation on the one hand (1st column) and of the inotrope response and relaxation on the other hand (2nd column).

[2] = test system: isolated guinea pig auricles; assay: Chronotrope effect of the substance on isolated auricles; details: 10^-6 M, 20 minutes, Tyrode, 29° C.
Protocol: The β-lytic effect was searched on the chronotropic response to noradrenaline of isolated guinea pig auricles. Auricles were incubated for 20 minutes in a Tyrode solution at 29° C. in the presence of the substance to be tested at the concentration of 10^-6 M. A positive (+) or negative (-) chronotrope effect of the substance was noted using the following scores: […]

[3] = test system: guinea pig ileum contractions induced by acetylcholine; assay: Antispasmodic activity against ileum contractions induced by acetylcholine
Protocol: (§2) The antispasmodic activity of the studied substances was examined against guinea pig ileum contractions induced by histamine and acetylcholine.
(§3) These experiences allow to make it obvious an antihistaminic, anticholinergic or musculotrope activity. The response to the contracting agent (sub-maximum concentration) is obtained every 5 minutes before and after injection of increasing concentrations of tested products (10^-7 M to 10^-4 M). The inhibition percentage under the influence of tested products is calculated and the theoretical concentration giving 50% of inhibition is graphically determined for each experience. These values are expressed in -log CI50 (M).

[4] = target: T2, β2 receptors of the guinea pig trachea (Cavia porcellus, UniProt Q8K4Z4); assay: Antagonist effect on relaxation of trachea by isoproterenol (pA2); details: histamine-contracted tracheal chain, read-out: β-lytic activity, pA2 trachea relaxation (converted)
T2 construct: β2 receptors of the guinea pig trachea; from tissue; host or cells: guinea pig tracheal chain contracted by histamine
Protocol: as §1

[5] = Antihypertensive activity, oral, unanesthetized spontaneously hypertensive rats; format: in vivo; details: 60 mg/kg oral; for Antihypertensive activity (score): spontaneously hypertensive rats; for Antihypertensive activity (index): systolic pressure difference (cmHg) every 30 min multiplied by time coefficient 1 to 6
Protocol: […] Only rats having a systolic pressure of 180 to 220 mm Hg are used. Two rats are used by product. The treatments are administered without the knowledge of the person making the measure.
The antihypertensive effects were recorded according to a score followed by an index. The scoring system is as follows.
The index is calculated by multiplying the systolic pressure difference (cmHg) measured every 30 minutes after the treatment, by a coefficient of 1 to 6 corresponding to times of 30 to 180 minutes.

[6] = test system: tachycardia caused by isoprotenenol; assay: β-lytic activity in vigile rat (antagonism of tachycardia caused by isoproterenol); format: in vivo; details: 10 mg/kg orally; isoproterenol 0.1 mg/kg transcutaneously
[7] = test system: guinea pig ileum contractions induced by histamine; assay: Antispasmodic activity against ileum contractions induced by histamine
Protocol: as §2, §3

[8] = LD50 in mice, oral (Lichtfield and Wilcoxon method); format: in vivo; details: mouse, in vivo, po, read-out: LD50
Protocol: LD50 were determined according to the Lichtfield and Wilcoxon method (J. Pharmacol. Exp. Ther. 96, 99, 1949) and expressed in mg/kg. The products were administered to mice orally.

peripheral β2 receptors = assay: Cardioselectivity in vivo, anesthetised dog: peripheral β2 receptors; details: 30 μg/kg i.v.
[9] = test system: chronotropic response to noradrenaline of isolated guinea pig auricles; assay: β-lytic effect on the chronotropic response to noradrenaline of isolated auricles
Protocol: The β-lytic effect was searched on the chronotropic response to noradrenaline of isolated guinea pig auricles. Auricles were incubated for 20 minutes in a Tyrode solution at 29° C. in the presence of the substance to be tested at the concentration of 10^-6 M. A positive (+) or negative (-) chronotrope effect of the substance was noted using the following scores:
Then, the chronotrope effect of cumulative increasing concentrations of noradrenaline was recorded. The pD2 (-log CE50) value was calculated. A score of β-lytic activity of the substance was given as follows:
If the score at concentration of 10^-6 M was 3 or 4, the effect of the substance was examined at concentration of 10^-7 M and a score was recorded according to the same procedure.

β1 cardiac receptors [10] = target: T1, β1 cardiac receptors; assay: β-lytic activity: inhibition of chronotropic response to noradrenaline of auricles (pA2); set-up: species or system guinea pig
Protocol: as §1

cardiac receptors = assay: Cardioselectivity in vivo, anesthetised dog: cardiac receptors; details: 30 μg/kg i.v.
[11] = test system: β1 cardiac receptors versus β2 tracheal receptors; assay: Cardioselectivity (auricles versus trachea); set-up: species or system guinea pig; details: for Cardioselectivity: Table III, from pA2 auricles and trachea; for times more active on β cardiac receptors than on β2 receptors: from difference of pA2 on auricles and trachea; for Cardioselectivity (in words): guinea pig auricles vs trachea
Protocol: as §1, with “column). For these various experiences, pA2 is calculated according to the Van Rossum method (Arch. Inern. Pharmacodyn., 143, 299-330, 1963).” for “column).”

[12] = Peripheral vasodilator activity, anesthetized dog, femoral arterial circulation; format: in vivo; details: 30 μg/kg injected directly
Protocol: The peripheral vasodilator activity was measured on anesthetized dog at the level of femoral arterial circulation. To this end, the femoral artery the collaterals of which have been ligated is perfused at constant rate with blood taken from aorta. The perfusion pressure measured at the level of the femoral artery thus varies as a function of the resistance of the perfused area. The tested products and the corresponding solvents are directly injected at the dose of 30 μg/kg. The cardiac output being maintained constant, a vasodilation is thus measured by a decrease of the perfusion pressure. The latter is scored in comparison with the action of papaverine, considered as a reference and injected one time by group of 4 products. When interesting, the products are tested with other doses under the same conditions.
The vasodilator activity is appreciated as follows: […]

[13] = isoproterenol, electrically stimulated left auricles, read-out: β-lytic activity, pA2 auricles inotrope response (converted)
[14] = noradrenaline, read-out: β-lytic activity, pA2 auricles chronotrope response (converted)

T1 sequence (H0W3H1 1-470): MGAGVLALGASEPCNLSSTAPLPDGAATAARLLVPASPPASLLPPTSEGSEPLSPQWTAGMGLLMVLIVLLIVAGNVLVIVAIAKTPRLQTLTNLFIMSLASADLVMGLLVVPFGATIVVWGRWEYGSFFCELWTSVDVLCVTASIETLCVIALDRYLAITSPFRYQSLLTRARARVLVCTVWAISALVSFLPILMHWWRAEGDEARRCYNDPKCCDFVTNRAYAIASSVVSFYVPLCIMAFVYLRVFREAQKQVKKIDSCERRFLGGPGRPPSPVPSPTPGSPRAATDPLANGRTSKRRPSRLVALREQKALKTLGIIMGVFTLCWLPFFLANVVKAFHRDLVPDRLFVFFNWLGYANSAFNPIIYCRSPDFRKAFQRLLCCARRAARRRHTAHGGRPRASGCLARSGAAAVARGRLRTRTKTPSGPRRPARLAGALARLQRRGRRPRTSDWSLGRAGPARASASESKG
T2 sequence (Q8K4Z4 whole entry): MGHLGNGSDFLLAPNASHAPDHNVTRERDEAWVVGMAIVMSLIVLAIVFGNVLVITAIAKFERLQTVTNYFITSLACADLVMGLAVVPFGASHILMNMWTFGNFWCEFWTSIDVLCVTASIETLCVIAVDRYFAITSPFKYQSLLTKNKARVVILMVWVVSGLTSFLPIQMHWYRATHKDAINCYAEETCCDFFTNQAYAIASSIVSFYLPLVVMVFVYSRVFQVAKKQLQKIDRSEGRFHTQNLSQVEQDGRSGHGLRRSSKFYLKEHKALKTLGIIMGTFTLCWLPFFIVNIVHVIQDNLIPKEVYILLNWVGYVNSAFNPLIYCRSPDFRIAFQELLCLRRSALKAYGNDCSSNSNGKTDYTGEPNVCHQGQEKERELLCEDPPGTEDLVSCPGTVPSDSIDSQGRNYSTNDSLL

| Structure (SMILES) | Inhibition of platelet agglutination (platelet agglutination) | Kb (β1 cardiac receptors [1]; [13]) [nM] | Chronotrope effect (score) [2] | Antispasmodic activity, Ac. Chol. (-log CI50 (M)) [3] | Kb [4] [µM] | Antihypertensive activity (score) [5] | Antihypertensive activity (index) [5] | Antispasmodic activity, Hist. (-log CI50 (M)) [7] | LD50 [8] [mg/kg] | β-lytic effect (score) ([9]; 10^-6 M) | β-lytic effect (score) ([9]; 10^-7 M) | Activity on β cardiac receptors (in words) (β1 cardiac receptors [10]) | Kb (β1 cardiac receptors [10]; [14]) [nM] | Cardioselectivity [11] | times more active on β cardiac receptors than on β2 receptors [11] | Cardioselectivity (in words) [11] | other results |
| --- | --- | --- | --- | --- | --- | --- | --- | --- | --- | --- | --- | --- | --- | --- | --- | --- | --- |
| CC(C)NCC(O)COc1ccc(-c2nc3ccccc3[nH]2)cc1 (stereo not shown) [Compound 1, 2-[4-(3-isopropylamino-2-hydroxypropoxy)phenyl]benzimidazole] | active | 35.5 | 0 (if the frequency modification was comprised between +6 and -6) | 5.21 -log CI50 (M) | 28.8 | ++++ (reduction>50 mm Hg) | 174 | 5.18 -log CI50 (M) | 2300 | 3 (if 6.00≥pD2 ≥5.51) | 2 (if 6.40≥pD2 ≥6.01) | active β-agents on β cardiac receptors | 13.5 | 1.73 | 2140 times | important cardioselectivity; also recorded: much higher than that of metopropol and atenolol | β-lytic activity in vigile rat [6]: demonstrated; Effect on stimulation of peripheral β2 receptors (peripheral β2 receptors): without affecting that of peripheral β2 receptors; Blocking of stimulation of cardiac receptors (cardiac receptors): blocks stimulation of cardiac receptors |
| CC(C)NCC(O)COc1ccc(CC(N)=O)cc1 (stereo not shown) [Atenolol, reference compound] | – | – | – | – | – | – | – | – | – | – | – | – | – | – | 50 times | – | Kb (β1 cardiac receptors [1]): 129 nM; Kb (β1 cardiac receptors [10]): 44.7 nM |
| CCCCCCCCNCC(O)COc1ccc(-c2nc3ccccc3[nH]2)cc1 (stereo not shown) [Compound 2, 2-[4-(3-n-octylamino-2-hydroxypropoxy)phenyl]benzimidazole] | active | – | – | 6.64 -log CI50 (M) | – | 0 (reduction <10 mm Hg) | – | 6.46 -log CI50 (M) | > 300 | – | – | – | – | – | – | – | Peripheral vasodilator activity [12]: active |
| COc1ccc(CCNCC(O)COc2ccc(-c3nc4ccccc4[nH]3)cc2)cc1OC (stereo not shown) [Compound 5, 2-[[4-{3-[2-(3,4-dimethoxyphenyl)ethylamino]-2-hydroxypropoxy}phenyl]]benzimidazole] | – | 39.8 | 0 (if the frequency modification was comprised between +6 and -6) | 5.69 -log CI50 (M) | > 100 | +++ (reduction of 30 to 50 mm Hg) | 34 | 5.80 -log CI50 (M) | > 3000 | 3 (if 6.00≥pD2 ≥5.51) | 2 (if 6.40≥pD2 ≥6.01) | active β-agents on β cardiac receptors | 21.4 | > 1.91 | more than 5600 times | important cardioselectivity; also recorded: much higher than that of metopropol and atenolol | – |
